{"source": "patent US20100227923A1", "about": "“PREVENTIVE/REMEDY FOR URINARY CALCULOSIS” (GODO SHUSEI CO., LTD., priority 2006, published 2010)", "key": {"[1]": {"conditions": "Non-Patent Documents 4 to 6; cited from earlier work"}, "[2]": {"conditions": "Non-Patent Documents 4 to 6; cited from earlier work", "remark": "listed apart in the source"}, "[3]": {"assay": "Blood level of rats after intravenous administration", "format": "in vivo, Wistar rats", "protocol": "After fasting overnight, 10- to 11-week old Wistar male rats were anesthetized with Nembutal, and sodium L-arabonate (0.5 mmol/kg) was administered through the femoral vein of each rat. Blood was sampled through the carotid artery as time elapsed, whereby the L-arabonic acid level was determined. Blood collection was performed by means of a heparin-treated capillary before administration and 5 min, 15 min, 30 min, and 1 hour after administration.\n(§1) The percent urine excretion (24 hours) was determined in the following manner. To each of the 5- to 6-week-old male Wistar rats which had been fasted overnight, sodium L-arabonate (0.5 mmol/kg) was administered through the tail vein. The rats were placed in a metabolic cage where urine was collected for 24 hours. After removal of protein from the blood samples and urine samples, the blood L-arabonic acid level of each sample was determined through HPLC. Instead of L-arabonic acid, sodium D-gluconate was administered to the rats of the control group. The blood sodium D-gluconate level was determined by means of an F-kit (product of Roche Diagnostic)."}, "mice": {"system": "mice", "assay": "Single-dose peroral safety experiment of mice (LD50)", "format": "in vivo"}, "[4]": {"assay": "Percent urine excretion (24 hours) of rats after intravenous administration", "format": "in vivo, Wistar rats", "conditions": "for Percent urine excretion (24 hours): rats, 0.5 mmol/kg i.v., av. ± standard error", "protocol": "as §1"}}, "note": "Like-named read-outs stand apart in the source and are kept apart here."}
{"compound": "O=C(O)[C@H](O)[C@@H](O)[C@H](O)[C@H](O)CO", "note": "[D-gluconic acid]", "values": [{"measurement": "Dissolving of calcium oxalate calculi", "setting": "[1]", "value": "not to dissolve"}, {"measurement": "Dissolving of calcium phosphate calculi and magnesium phosphate calculi", "setting": "[2]", "value": "dissolve"}]}
{"compound": "O=C([O-])[C@H](O)[C@@H](O)[C@@H](O)CO.[Na+]", "note": "[Sodium L-arabonate, sodium L-arabonate]", "values": [{"measurement": "Time at which blood level decreased to about the half value", "setting": "[3]; rat, in vivo, iv", "value": 22, "unit": "min"}]}
{"compound": "O=C(O)[C@H](O)[C@@H](O)[C@@H](O)CO", "note": "[L-Arabonic acid, L-arabonic acid]", "values": [{"measurement": "LD50", "setting": "mice", "value": "about 10 g/kg"}, {"measurement": "Metabolism in the body", "setting": "[4]; rat, in vivo", "value": "not metabolized in the body and is immediately excreted to urine"}, {"measurement": "Portion of the absorbed L-arabonic acid excreted to urine", "setting": "[4]; rat, in vivo", "value": "~100", "unit": "%"}]}
{"compound": "O=C([O-])[C@H](O)[C@@H](O)[C@H](O)[C@H](O)CO.[Na+]", "note": "[Sodium D-gluconate, sodium D-gluconate]", "values": [{"measurement": "Blood D-gluconic acid level", "setting": "[3]; rats, 0.5 mmol/kg i.v.", "value": "considerably low"}, {"measurement": "Metabolism in the body", "setting": "[4]", "value": "a large portion thereof is thought to be metabolized and consumed in the body"}, {"measurement": "Percent urine excretion (24 hours)", "setting": "[4]", "value": "9.8 ± 9.76", "unit": "%"}, {"measurement": "Percent urine excretion (24 hours)", "setting": "[4]; listed as sodium D-gluconate", "value": "about 10%"}]}
